Source: ChEMBL document CHEMBL5344416, “Phenothiazines as anti-cancer agents: SAR overview and synthetic strategies” (Eur J Med Chem, 2023)
Values belong to the molecule of their own block, whether it stands above or below them.

Tests used:
SNB-19 [1] = experiment: Antiproliferative activity against human SNB-19 cells assessed as reduction in cell proliferation incubated for 72 hrs by WST-1 assay; assay type: functional, cell-based; settings: SNB-19, 72 h
TC-32 [2] = experiment: Antiproliferative activity against human TC-32 cells assessed as reduction in cell proliferation incubated for 72 hrs by WST-1 assay; assay type: functional, cell-based; settings: TC-32, 72 h
MDA-MB-231 [3] = experiment: Antiproliferative activity against human MDA-MB-231 cells assessed as reduction in cell proliferation incubated for 72 hrs by WST-1 assay; assay type: functional, cell-based; settings: MDA-MB-231, 72 h
LoVo [4] = experiment: Antiproliferative activity against human LoVo cells assessed as reduction in cell viability incubated for 48 hrs by MTT assay; assay type: functional, cell-based
LoVo [5] = experiment: Cytotoxicity against human LoVo cells assessed as reduction in cell viability incubated for 72 hrs by MTT assay; assay type: functional
[6] = Antiproliferative activity against human Lovo/DX cells assessed as reduction in cell viability; assay type: functional, cell-based
[7] = Cytotoxicity against human Lovo/DX cells assessed as reduction in cell viability incubated for 72 hrs by MTT assay; assay type: functional
BXPC-3 = experiment: Cytotoxicity against human BXPC-3 cells assessed as reduction in cell viability incubated for 72 hrs by MTT assay; assay type: functional, cell-based; settings: BXPC-3, 72 h
ASPC1 [8] = experiment: Cytotoxicity against human ASPC1 cells assessed as reduction in cell viability incubated for 24 hrs by MTT assay; assay type: functional, cell-based; settings: ASPC1, 24 h
PANC-1 = experiment: Cytotoxicity against human PANC-1 cells assessed as cell growth inhibition incubated for 48 hrs by WST-1 assay; assay type: functional, cell-based; settings: PANC-1, 48 h
SW1990 [9] = experiment: Cytotoxicity against human SW1990 cells measured after 8 days; assay type: functional, cell-based; settings: SW1990, 192 h
MRC5 = experiment: Cytotoxicity against human MRC5 cells assessed as reduction in cell growth incubated for 48 hrs by CCK8 assay; assay type: functional, cell-based; settings: MRC5, 48 h
SNB-19 [10] = experiment: Anticancer activity against human SNB-19 cells assessed as reduction in cell growth incubated for 48 hrs by SRB assay; assay type: functional, cell-based; settings: SNB-19, 48 h
TC-32 [11] = experiment: Anticancer activity against human TC-32 cells assessed as reduction in cell growth incubated for 48 hrs by SRB assay; assay type: functional, cell-based; settings: TC-32, 48 h
MDA-MB-231 [12] = experiment: Anticancer activity against human MDA-MB-231 cells assessed as reduction in cell viability measured after 72 hrs by MTT assay; assay type: functional, cell-based; settings: MDA-MB-231, 72 h
THP-1 = experiment: Antiproliferative activity against human THP-1 cells assessed as cell growth inhibition measured after 24 hrs by MTT assay; assay type: functional, cell-based; settings: THP-1, 24 h
HL-60 = experiment: Antiproliferative activity against human HL-60 cells assessed as cell growth inhibition measured after 24 hrs by MTT assay; assay type: functional, cell-based; settings: HL-60, 24 h
[13] = Antiproliferative activity against human PBMC cells assessed as reduction in cell viability measured after 24 hrs by MTT assay; assay type: functional, cell-based
MCF7 [14] = experiment: Antitumor activity against human MCF7 cells assessed as inhibition of cell growth at 1000 ug measured after 48 hrs by spectrophotometric analysis relative to control; assay type: functional; design: scale not given: the % may be the effect or the level left; settings: dose 1000 µg
MCF7 [15] = experiment: Antitumor activity against human MCF7 cells assessed as increase in LDH level at 1000 ug relative to control; assay type: functional; settings: dose 1000 µg
CT26 [16] = experiment: Antitumor activity against mouse CT26 cells assessed as reduction in cell viability incubated for 4 hrs by MTT assay; assay type: functional, cell-based; settings: CT26, 4 h
CT26 [17] = experiment: Antitumor activity against mouse CT26 cells assessed as tumor growth inhibition incubated for 4 hrs by MTT assay relative to control; assay type: functional; design: scale not given: the % may be the effect or the level left
SW1990 [18] = experiment: Antiproliferative activity against human SW1990 cells assessed as reduction in cell viability; assay type: functional, cell-based
ASPC1 [19] = experiment: Antiproliferative activity against human AsPC1 cells assessed as inhibition of cell proliferation incubated for 6 days by CCK8 assay; assay type: functional, cell-based; settings: ASPC1, 144 h
CWR22R = experiment: Antiproliferative activity against human 22Rv1 cells assessed as cell viability incubated for 96 hrs by Cell-Titer Glo assay; assay type: functional, cell-based; settings: 22Rv1, 96 h
RAW264.7 = experiment: Cytotoxicity against mouse RAW264.7 cells assessed as reduction in cell viability incubated for 72 hrs; assay type: functional, cell-based; settings: RAW264.7, 72 h
HepG2 = experiment: Cytotoxicity against human HepG2 cells assessed as reduction in cell viability incubated for 48 hrs by MTT assay; assay type: functional, cell-based; settings: HepG2, 48 h
MCF7 [20] = experiment: Cytotoxicity against human MCF7 cells assessed as cell growth inhibition measured after 48 hrs by MTT assay; assay type: functional, cell-based; settings: MCF7, 48 h
HSC-2 = experiment: Cytotoxicity against human HSC-2 cells assessed as reduction in cell viability measured after 48 hrs by MTT assay; assay type: functional
HSC-3 = experiment: Cytotoxicity against human HSC-3 cells assessed as reduction in cell viability incubated for 48 hrs by MTT assay; assay type: functional
HSC-4 = experiment: Cytotoxicity against human HSC-4 cells assessed as reduction in cell viability incubated for 48 hrs by MTT assay; assay type: functional
SNB-19 [21] = experiment: Anticancer activity against human SNB-19 cells assessed as reduction in cell proliferation incubated for 72 hrs by WST-1 assay; assay type: functional, cell-based; settings: SNB-19, 72 h
Caco-2 = experiment: Cytotoxicity against human Caco-2 cells assessed as reduction in cell proliferation incubated for 72 hrs by WST-1 assay; assay type: functional, cell-based; settings: Caco-2, 72 h
A549 = experiment: Antiproliferative activity against human A549 cells assessed as reduction in cell viability incubated for 72 hrs by WST-1 assay; assay type: functional, cell-based; settings: A549, 72 h
MDA-MB-231 [22] = experiment: Antiproliferative activity against human MDA-MB-231 cells assessed as reduction in cell viability incubated for 72 hrs by WST-1 assay; assay type: functional, cell-based; settings: MDA-MB-231, 72 h
NHDF = experiment: Cytotoxicity against human NHDF cells assessed as reduction in cell viability incubated for 72 hrs by WST-1 assay; assay type: functional, cell-based

Compound: CC1=C(C(=O)Nc2ccc(Cl)c(Cl)c2)C(c2ccc3c(c2)Sc2ccccc2N3)C(C(=O)Nc2ccc(Cl)c(Cl)c2)=C(C)N1
IC50 (BXPC-3): 6.31 µM
IC50 (ASPC1 [8]): 6.31 µM
IC50 (PANC-1): 6.31 µM
IC50 (SW1990 [9]): 6.31 µM
IC50 (MRC5): 70.5 µM

Compound: CN1c2ccccc2Sc2cc(/C=C/C(=O)c3ccccc3)ccc21
Activity (MCF7 [14]): 21%
Activity (MCF7 [15]): 64%

Compound: O=C(Nc1ccc(OCCCN2CCNCC2)cc1)N1c2ccccc2Sc2ccccc21
IC50 (CWR22R): 13.5 µM
IC50 (RAW264.7): 60.1 µM

Compound: CCCCCCCCCCCCN1c2ccccc2Sc2ccc(C(=O)/C=C/c3ccc(Cl)cc3)cc21
IC50 (HepG2): 7.14 µM
IC50 (MCF7 [20]): 13.8 µM

Compound: COc1cc(OC)c(OC)cc1/C=C/C(=O)c1ccc2c(c1)Nc1ccccc1S2
CC50 (HSC-2): 4.9 µM
CC50 (HSC-3): 311 µM
CC50 (HSC-4): 8 µM

Compound: CCCCCCCCCCCCN1c2ccccc2Sc2ccc(C(=O)/C=C/c3cc(OC)c(OC)c(OC)c3)cc21
IC50 (HepG2): 7.6 µM
IC50 (MCF7 [20]): 12 µM

Compound: OCCN1CCN(CCCN2c3ccccc3Sc3ccc(C(F)(F)F)cc32)CC1 [FLUPHENAZINE]
IC50 (LoVo [4]): 80 µM
IC20 (LoVo [5]): 22 µM
IC50 [6]: 80 µM
IC20 [7]: 22 µM

Continued, in another order:

IC50 (MDA-MB-231 [3]): 2.13 µM
Compound: CCN(CC)CCN1c2ncccc2Sc2cccnc21
IC50 (SNB-19 [1]): 0.33 µM
IC50 (TC-32 [2]): 14.4 µM

IC50 (LoVo [4]): 50 µM
Compound: OCCOCCN1CCN(CC(O)CN2c3ccccc3Sc3ccc(C(F)(F)F)cc32)CC1 (stereo unspecified)
IC20 (LoVo [5]): 6 µM
IC50 [6]: 20 µM
IC20 [7]: 4 µM

IC50 (LoVo [4]): 50 µM
Compound: CN(CCO)CC(O)CN1c2ccccc2Sc2ccc(C(F)(F)F)cc21 (stereo unspecified)
IC20 (LoVo [5]): 12 µM
IC50 [6]: 42 µM
IC20 [7]: 8 µM

IC50 (MDA-MB-231 [12]): 0.74 µM
Compound: C(#CCN1c2ccncc2Sc2ncccc21)CN1CCN(c2ccccc2)CC1
IC50 (SNB-19 [10]): 0.45 µM
IC50 (TC-32 [11]): 4.57 µM

IC50 (THP-1): 21.6 µM
IC50 (HL-60): 67.3 µM
Compound: CCCCCCCCCCc1nc2cc3c(cc2s1)N(C)c1ccccc1S3
IC50 [13]: > 2000 µM

IC50 (LoVo [4]): 100 µM
Compound: CC(=O)c1ccc(N2CCN(CC(O)CN3c4ccccc4Sc4ccc(C(F)(F)F)cc43)CC2)cc1 (stereo unspecified)
IC20 (LoVo [5]): 3 µM
IC50 [6]: 100 µM
IC20 [7]: 4 µM

IC50 (CT26 [16]): 344 µM
Compound: COCCOCCOCCOCCOCCOCCOCCOCCOCCOCCOCCOCCN1c2ccccc2Sc2ccccc21
Activity (CT26 [17]): 92%

IC50 (SW1990 [18]): 22.8 µM
IC50 (ASPC1 [19]): 15.7 µM
Compound: CCN1c2ccccc2Sc2cc(C3NC(=O)NC(C)=C3C(=O)Nc3ccccc3)ccc21 (stereo unspecified)
IC50 (MRC5): 83.7 µM

IC50 (A549): 0.25 µM
IC50 (MDA-MB-231 [22]): 0.51 µM
Compound: Clc1ccc(Cn2cc(CN3c4cccnc4Sc4cccnc43)nn2)cc1
IC50 (SNB-19 [21]): 4.66 µM
IC50 (Caco-2): 0.25 µM
IC50 (NHDF): > 100 µM
